Data on 19 compounds can be found in patent publication US9840495B2, “Oxindole derivatives carrying a piperidyl-substituted azetidinyl substituent and use thereof for treating vasopressine-related diseases” (AbbVie Deutschland GmbH & Co. KG, priority 2013, dated 2017).

Some results are limits rather than exact numbers.

Test [1] deals with human vasopressin V1a receptor (Homo sapiens, UniProt P37288). Put plainly: Vasopressin V1a receptor binding assay (125I-AVP displacement, CHO-K1 membranes). Particulars: selectivity quotient, human V1a vs human V1b receptor binding.
human vasopressin V1a receptor, sequence (P37288 whole entry): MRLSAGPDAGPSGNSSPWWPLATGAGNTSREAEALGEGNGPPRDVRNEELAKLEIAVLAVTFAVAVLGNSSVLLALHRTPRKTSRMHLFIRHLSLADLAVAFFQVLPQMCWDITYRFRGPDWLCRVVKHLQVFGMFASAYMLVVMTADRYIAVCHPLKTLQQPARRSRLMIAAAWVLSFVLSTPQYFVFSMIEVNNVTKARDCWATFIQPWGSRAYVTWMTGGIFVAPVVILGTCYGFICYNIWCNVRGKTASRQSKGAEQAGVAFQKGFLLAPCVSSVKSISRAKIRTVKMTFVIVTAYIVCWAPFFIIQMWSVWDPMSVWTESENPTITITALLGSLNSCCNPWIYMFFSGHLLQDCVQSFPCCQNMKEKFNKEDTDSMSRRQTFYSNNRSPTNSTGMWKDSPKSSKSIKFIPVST
The target of test [2] is T1, human vasopressin V1b receptor (Homo sapiens, UniProt P47901).
T1 sequence (P47901 1-424): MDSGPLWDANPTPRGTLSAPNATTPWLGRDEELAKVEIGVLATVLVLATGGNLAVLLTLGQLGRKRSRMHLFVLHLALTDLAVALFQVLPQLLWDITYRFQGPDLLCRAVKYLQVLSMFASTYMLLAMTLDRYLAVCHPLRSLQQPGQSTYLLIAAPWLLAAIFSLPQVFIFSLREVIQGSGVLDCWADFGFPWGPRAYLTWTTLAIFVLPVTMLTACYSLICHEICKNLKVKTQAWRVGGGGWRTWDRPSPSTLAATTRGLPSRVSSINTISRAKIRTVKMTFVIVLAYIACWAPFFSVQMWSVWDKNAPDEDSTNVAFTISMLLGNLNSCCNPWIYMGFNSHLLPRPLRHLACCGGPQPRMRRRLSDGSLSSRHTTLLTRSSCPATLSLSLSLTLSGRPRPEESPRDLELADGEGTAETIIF
Put plainly: biochemical.

A word on the Ki: it is a measure of affinity in units of concentration, obtained from inhibition or displacement. A lower Ki goes with tighter binding. Take `CCOc1ncccc1[C@]1(NC(=O)N2CC(N3CCC(N4CCC5(CC4)COC5)CC3)C2)C(=O)N(S(=O)(=O)c2ccc(OC)cc2OC)c2ccc(C#N)cc21` [Example 6, (S)-3-(4-(2-Oxa-7-Azaspiro[3.5]nonan-7-yl)piperidin-1-yl)-N-(5-cyano-1-((2,4-dimethoxyphenyl)sulfonyl)-3-(2-ethoxypyridin-3-yl)-2-oxoindolin-3-yl)azetidine-1-carboxamide]: the “Ki(h-V1a)/Ki(h-V1b)” value in test [1] is “+++ (>75)”. In test [2], this compound had a Ki of 1 to 10 nM.
Consider `CCOc1ncccc1[C@]1(NC(=O)N2CC(N3CCC(N4CCOCC4)CC3)C2)C(=O)N(S(=O)(=O)c2ccc(OC)cc2OC)c2cc(F)c(F)cc21` [Example 8, (S)—N-(1-((2,4-Dimethoxyphenyl)sulfonyl)-3-(2-ethoxypyridin-3-yl)-5,6-difluoro-2-oxoindolin-3-yl)-3-(4-morpholinopiperidin-1-yl)azetidine-1-carboxamide], for which, in test [1], the “Ki(h-V1a)/Ki(h-V1b)” value was “++ (25-75)”. Besides, in test [2], the inhibition constant Ki was < 1 nM.
On to `CCOc1ncccc1[C@]1(NC(=O)N2CC(N3CCC(N4CCOCC4)CC3)C2)C(=O)N(S(=O)(=O)c2ccc(OC)cc2OC)c2cc(F)c(C#N)cc21` [Example 9, (S)—N-(5-Cyano-1-((2,4-dimethoxyphenyl)sulfonyl)-3-(2-ethoxypyridin-3-yl)-6-fluoro-2-oxoindolin-3-yl)-3-(4-morpholinopiperidin-1-yl)azetidine-1-carboxamide], for which the “Ki(h-V1a)/Ki(h-V1b)” value in test [1] is listed as “++ (25-75)”. Further, the inhibitory constant (Ki) in test [2] was < 1 nM.
Take `CCOc1ncccc1[C@]1(NC(=O)N2CC(N3CCC(N(C)C4COC4)CC3)C2)C(=O)N(S(=O)(=O)c2ccc(OC)cc2OC)c2cc(F)c(C#N)cc21` [Example 10, (S)—N-(5-Cyano-1-((2,4-dimethoxyphenyl)sulfonyl)-3-(2-ethoxypyridin-3-yl)-6-fluoro-2-oxoindolin-3-yl)-3-(4-(methyl(oxetan-3-yl)amino)piperidin-1-yl)azetidine-1-carboxamide]: the “Ki(h-V1a)/Ki(h-V1b)” value in test [1] is on record as “+++ (>75)”. For the same compound, the Ki in test [2] is < 1 nM.
For `CCOc1ncccc1[C@]1(NC(=O)N2CC(N3CCC(N(C)C4COC4)CC3)C2)C(=O)N(S(=O)(=O)c2ccc(OC)cc2OC)c2cc(F)c(F)cc21` [Example 11, N-[(3S)-1-[(2,4-Dimethoxyphenyl)sulfonyl]-3-(2-ethoxypyridin-3-yl)-5,6-difluoro-2-oxo-2,3-dihydro-1H-indol-3-yl]-3-{4-[methyl(oxetan-3-yl)amino]piperidin-1-yl}azetidine-1-carboxamide], the “Ki(h-V1a)/Ki(h-V1b)” value in test [1] was “++ (25-75)”. Also, the inhibitory constant (Ki) in test [2] fell in the range of 1 to 10 nM.
For `CCOc1ncccc1[C@]1(NC(=O)N2CC(N3CCC(N(C)CCOC)CC3)C2)C(=O)N(S(=O)(=O)c2ccc(OC)cc2OC)c2ccc(C#N)cc21` [Example 15, (S)—N-(5-Cyano-1-((2,4-dimethoxyphenyl)sulfonyl)-3-(2-ethoxypyridin-3-yl)-2-oxoindolin-3-yl)-3-(4-((2-methoxyethyl)(methyl)amino)piperidin-1-yl)azetidine-1-carboxamide] the same measures were “+++ (>75)” and 1 to 10 nM.
The matching figures for `CCOc1ncccc1[C@]1(NC(=O)N2CC(N3CCC(N4CCCO4)CC3)C2)C(=O)N(S(=O)(=O)c2ccc(OC)cc2OC)c2ccc(C#N)cc21` [Example 17, (S)—N-(5-Cyano-1-((2,4-dimethoxyphenyl)sulfonyl)-3-(2-ethoxypyridin-3-yl)-2-oxoindolin-3-yl)-3-(4-(isoxazolidin-2-yl)piperidin-1-yl)azetidine-1-carboxamide]: “+++ (>75)” and 10 to 100 nM.
Turning to `CCOc1ncccc1[C@]1(NC(=O)N2CC(N3CCC(N4CC(C5COC5)C4)CC3)C2)C(=O)N(S(=O)(=O)c2ccc(OC)cc2OC)c2ccc(C#N)cc21` [Example 18, (S)—N-(5-Cyano-1-((2,4-dimethoxyphenyl)sulfonyl)-3-(2-ethoxypyridin-3-yl)-2-oxoindolin-3-yl)-3-(4-(3-(oxetan-3-yl)azetidin-1-yl)piperidin-1-yl)azetidine-1-carboxamide], the “Ki(h-V1a)/Ki(h-V1b)” value in test [1] was “+++ (>75)”. Also, in test [2], the Ki is < 1 nM.
The matching figures for `CCOc1ncccc1[C@]1(NC(=O)N2CC(N3CCC(N4CC5(COC5)C4)CC3)C2)C(=O)N(S(=O)(=O)c2ccc(OC)cc2OC)c2ccc(C#N)cc21` [Example 19, (S)-3-(4-(2-Oxa-6-azaspiro[3.3]heptan-6-yl)piperidin-1-yl)-N-(5-cyano-1-((2,4-dimethoxyphenyl)sulfonyl)-3-(2-ethoxypyridin-3-yl)-2-oxoindolin-3-yl)azetidine-1-carboxamide]: “+++ (>75)” and < 1 nM.
As to `COc1ccc(S(=O)(=O)N2C(=O)[C@@](NC(=O)N3CC(N4CCC(NC5COC5)CC4)C3)(c3cccnc3OC)c3cc(C#N)ccc32)c(OC)c1` [Example 20, (S)—N-(5-Cyano-1-((2,4-dimethoxyphenyl)sulfonyl)-3-(2-methoxypyridin-3-yl)-2-oxoindolin-3-yl)-3-(4-(oxetan-3-ylamino)piperidin-1-yl)azetidine-1-carboxamide], the “Ki(h-V1a)/Ki(h-V1b)” value in test [1] is reported as “+ (10-<25)”. In test [2], the Ki is 1 to 10 nM.
As to `COc1ccc(S(=O)(=O)N2C(=O)[C@@](NC(=O)N3CC(N4CCC(N(C)C5CCOCC5)CC4)C3)(c3cccnc3OC)c3cc(C#N)ccc32)c(OC)c1` [Example 21, (S)—N-(5-Cyano-1-((2,4-dimethoxyphenyl)sulfonyl)-3-(2-methoxypyridin-3-yl)-2-oxoindolin-3-yl)-3-(4-(methyl(tetrahydro-2H-pyran-4-yl)amino)piperidin-1-yl)azetidine-1-carboxamide], the “Ki(h-V1a)/Ki(h-V1b)” value in test [1] is “+ (10-<25)”. In addition, the Ki in test [2] is < 1 nM.
Take `CCN(C1CCN(C2CN(C(=O)N[C@@]3(c4cccnc4OC)C(=O)N(S(=O)(=O)c4ccc(OC)cc4OC)c4ccc(C#N)cc43)C2)CC1)C1COC1` [Example 23, (S)—N-(5-Cyano-1-((2,4-dimethoxyphenyl)sulfonyl)-3-(2-methoxypyridin-3-yl)-2-oxoindolin-3-yl)-3-(4-(ethyl(oxetan-3-yl)amino)piperidin-1-yl)azetidine-1-carboxamide]: in test [1], the “Ki(h-V1a)/Ki(h-V1b)” value is given as “++ (25-75)”. The Ki in test [2] was in the range of 1 to 10 nM.
Take `CCOc1ncccc1[C@]1(NC(=O)N2CC(N3CCC(N4CCOCC4)CC3)C2)C(=O)N(S(=O)(=O)c2cc(F)c(OC)cc2OC)c2ccc(C#N)cc21` [Example 24, (S)—N-(5-Cyano-3-(2-ethoxypyridin-3-yl)-1-((5-fluoro-2,4-dimethoxyphenyl)sulfonyl)-2-oxoindolin-3-yl)-3-(4-morpholinopiperidin-1-yl)azetidine-1-carboxamide]: in test [1], the “Ki(h-V1a)/Ki(h-V1b)” value is recorded as “+++ (>75)”. The compound also yielded an inhibition constant (Ki) in test [2] of 1 to 10 nM.
With `CCOc1ncccc1[C@]1(NC(=O)N2CC(N3CCC(N4CCOCC4)CC3)C2)C(=O)N(S(=O)(=O)c2ccc(OC)cc2)c2ccc(C#N)cc21` [Example 25, (S)—N-(5-Cyano-3-(2-ethoxypyridin-3-yl)-1-((4-methoxyphenyl)sulfonyl)-2-oxoindolin-3-yl)-3-(4-morpholinopiperidin-1-yl)azetidine-1-carboxamide], the “Ki(h-V1a)/Ki(h-V1b)” value in test [1] is “++ (25-75)”. In addition, in test [2], the inhibition constant Ki is < 1 nM.
The matching figures for `CCOc1ncccc1[C@]1(NC(=O)N2CC(N3CCC(N4CCOCC4)CC3)C2)C(=O)N(S(=O)(=O)c2ccc(OC)cc2F)c2ccc(C#N)cc21` [Example 27, (S)—N-(5-cyano-3-(2-ethoxypyridin-3-yl)-1-((2-fluoro-4-methoxyphenyl)sulfonyl)-2-oxoindolin-3-yl)-3-(4-morpholinopiperidin-1-yl)azetidine-1-carboxamide]: “+++ (>75)” and < 1 nM.
Turning to `CCOc1ncccc1[C@]1(NC(=O)N2CC(N3CCC(N4CCOCC4)CC3)C2)C(=O)N(S(=O)(=O)c2ccc(F)cc2OC)c2ccc(C#N)cc21` [Example 28, (S)—N-(5-cyano-3-(2-ethoxypyridin-3-yl)-1-((4-fluoro-2-methoxyphenyl)sulfonyl)-2-oxoindolin-3-yl)-3-(4-morpholinopiperidin-1-yl)azetidine-1-carboxamide], the “Ki(h-V1a)/Ki(h-V1b)” value in test [1] was “+++ (>75)”. In test [2], this compound had an inhibition constant (Ki) of 1 to 10 nM.
In the case of `COc1ccccc1S(=O)(=O)N1C(=O)[C@@](NC(=O)N2CC(N3CCC(N(C)C4COC4)CC3)C2)(c2cccnc2OC)c2cc(C#N)ccc21` [Example 29, (S)—N-(5-Cyano-1-((2-methoxyphenyl)sulfonyl)-3-(2-methoxypyridin-3-yl)-2-oxoindolin-3-yl)-3-(4-(methyl(oxetan-3-yl)amino)piperidin-1-yl)azetidine-1-carboxamide], in test [1], the “Ki(h-V1a)/Ki(h-V1b)” value is “+ (10-<25)”. Moreover, the Ki in test [2] was 1 to 10 nM.
For the compound `COc1cc(F)ccc1S(=O)(=O)N1C(=O)[C@@](NC(=O)N2CC(N3CCC(N(C)C4COC4)CC3)C2)(c2cccnc2OC)c2cc(C#N)ccc21` [Example 30, (S)—N-(5-Cyano-1-((4-fluoro-2-methoxyphenyl)sulfonyl)-3-(2-methoxypyridin-3-yl)-2-oxoindolin-3-yl)-3-(4-(methyl(oxetan-3-yl)amino)piperidin-1-yl)azetidine-1-carboxamide], the “Ki(h-V1a)/Ki(h-V1b)” value in test [1] was “+ (10-<25)”. In test [2], the inhibition constant (Ki) is 1 to 10 nM.
In the case of `COc1ncccc1[C@]1(NC(=O)N2CC(N3CCC(N(C)C4COC4)CC3)C2)C(=O)N(S(=O)(=O)c2ccc(F)cc2)c2ccc(C#N)cc21` [Example 31, (S)—N-(5-Cyano-1-((4-fluorophenyl)sulfonyl)-3-(2-methoxypyridin-3-yl)-2-oxoindolin-3-yl)-3-(4-(methyl(oxetan-3-yl)amino)piperidin-1-yl)azetidine-1-carboxamide], in test [1], the “Ki(h-V1a)/Ki(h-V1b)” value is given as “+ (10-<25)”. In addition, the Ki in test [2] fell in the range of 1 to 10 nM.
